Experimental data: US20240374635A1, “COMPOSITIONS AND METHODS” (Glasport Bio Limited, priority 2021, published 2024)
Read-outs that look alike come from different tables or passages of the source.

Assays:
cattle = experiment: In vivo rumen ORP in cattle with ORP measurement bolus
Description: Experimental: An in vivo study was conducted to investigate the effect of feed additives of the invention on rumen ORP in cattle. The study involved administering an ORP measurement bolus to each cow to allow for an ORP reading to be recorded every 10 minutes, dividing the cattle into three groups: a control group (receiving feed without any feed additive of the invention), low dose (receiving 100 g CaO2 per day along with feed—with the additive being delivered at a single morning feeding) and a high dose group (receiving 200 g CaO2 per day along with feed—with the additive being delivered at a single morning feeding). The rumen was opened after approximately 450 hours.
The results of this study are given in FIG. 20 which charts the ORP level in the rumen (mV) over time measured at 10-minute intervals for the control group, the low-dose group, and the high-dose group respectively.
An average baseline ORP reading measured for the animals from the control group is about −440 mV. This average baseline ORP reading of about −440 mV may be useful to aid comparison between control ORP and increases in ORP due to the animals consuming the additive. After approximately 450 hours the rumen was opened and the ORP results after this time point should be disregarded.

adult ewes = system: adult ewes
Description: A methane emission study was carried out to determine the impact of feeding different doses of the feed additive would have on enteric fermentation. […] Any refused concentrate/additive was recorded. Sheep then had ad libitum access to grass silage and water throughout the day, with the amount of silage eaten recorded for each animal.
Body weights of all animals were recorded at the start of the experiment (‘week 1’) and after 49 days (‘week 7’).
Methane emissions were recorded through use of Portable Accumulation Chambers (PAC). Briefly: these are sealed chambers in which individual animals remain for a 1 hour time period. During this time period methane, oxygen and carbon dioxide measurements are taken at 0 minutes, 25 minutes and 50 minutes. […] Animals were placed in the PAC on week 1 and […] as defined above. 12 adult ewes, at least 2 years old, were divided into 2 groupings of 6 sheep. One group received a 2.355 g dose of Urea-Hydrogen Peroxide (termed Group 1) per day and the other received a 4.71 g dose of Urea-Hydrogen Peroxide (termed Group 2) per day.
Control Group: Sheep were fed 0.5 kg of feed concentrate comprising animal feed, on a daily basis over a 7 week period.
Treatment Group 1 (UHP 0.5X): Sheep were fed 0.5 kg of feed concentrate comprising the same animal feed as the control group and 0.15% (by weight) of urea hydrogen peroxide, on a daily basis over a 7 week period.
Treatment Group 2 (UHP 1X): Sheep were fed 0.5 kg of feed concentrate comprising the same animal feed as the control group and 0.3% (by weight) of urea hydrogen peroxide, on a daily basis over a 7 week period.

[1] = for Average Weight Gain: day 1 to day 49; for Average Daily DMI: group average; for Gain:Feed Ratio: group basis; for Average Finishing Weight / Average Starting Weight: group of 20 sheep
Description: Experimental: A study was conducted to determine what impact consumption of the feed additives would have on animal performance. It is estimated that between 2-12% of the energy content of animal feed is lost through enteric fermentation. This study examined whether though potential reductions in enteric fermentation additional energy would be diverted to the animal, with this being seen via an improved feed:gain metric, that is the ability of the animal to improve the rate of increase in its body weight per unit of feed eaten. 60 adult ewes (average starting body weight of approximately 80 kg) were divided into 3 equal groups of 20 sheep per group. Animals were fed as described in the Animal Study—Methane Emissions above. Animals were grouped into a control group (no feed additive given); treatment group 1 (2.355 g Urea-Hydrogen Peroxide given daily); treatment group 2 (4.71 g Urea-Hydrogen Peroxide given daily).
Animals were weighed at the start of the experiment (day 1) and at the end of the study (day 49). All feed (DMI) consumed was weighed and recorded throughout the study.
A feed:gain ratio was calculated as follows: […]
The ratio of weight gain to DMI was then calculated to determine the feed efficiency of each animal.

[2] = Treatment Group 1, 2.355 g UHP per day
[3] = Treatment Group 1, 2.355 g UHP per day, Week 1
[4] = Treatment Group 1, 2.355 g UHP per day, Week 7
[5] = Treatment Group 2, 4.71 g UHP per day
[6] = Treatment Group 2, 4.71 g UHP per day, Week 1
[7] = Treatment Group 2, 4.71 g UHP per day, Week 7

SMILES: [Ca+2].[O-][O-] [CaO2, calcium peroxide]
- increase of ORP in the rumen after each morning feed (cattle; 100 g or 200 g CaO2 per day with feed, sustained period of at least one hour): at least +100 mV
- initial period (correction phase) of the ORP profile (cattle; 100 g or 200 g CaO2 per day, temporary reductions below baseline between administrations): 300 to 350 h

SMILES: NC(N)=O.OO [urea hydrogen peroxide]
- CH4/BW Difference week 7 versus week 1 (adult ewes; [2]): 11.24%
- CH4/day Difference week 7 versus week 1 (adult ewes; [2]): 5.828%
- CH4/BW (group mean) (adult ewes; [3]): 0.3705 litres of methane per kg of animal body weight
- CH4/day (group mean) (adult ewes; [3]): 29.32
- CH4/BW (group mean) (adult ewes; [4]): 0.3288 litres of methane per kg of animal body weight
- CH4/day (group mean) (adult ewes; [4]): 27.61
- CH4/BW Difference week 7 versus week 1 (adult ewes; [5]): 22.61%
- CH4/day Difference week 7 versus week 1 (adult ewes; [5]): 18.04%
- CH4/BW (group mean) (adult ewes; [6]): 0.3753 litres of methane per kg of animal body weight
- CH4/day (group mean) (adult ewes; [6]): 29.82
- CH4/BW (group mean) (adult ewes; [7]): 0.2905 litres of methane per kg of animal body weight
- CH4/day (group mean) (adult ewes; [7]): 24.44
- methane production by week 7 (adult ewes; treatment groups, feed concentrate comprising urea hydrogen peroxide): significant decrease in methane production
- Average Weight Gain ([1]; Treatment 1, 2.355 g UHP daily): 5.65 kg
- Average Daily DMI ([1]; Treatment 1, 2.355 g UHP daily): 1.6345 kg
- Gain:Feed Ratio ([1]; Treatment 1, 2.355 g UHP daily): 0.0864
- Average Finishing Weight ([1]; Treatment 1, 2.355 g UHP daily): 82.55 kg
- Average Starting Weight ([1]; Treatment 1, 2.355 g UHP daily): 76.9 kg
- Average Weight Gain ([1]; Treatment 2, 4.71 g UHP daily): 6.325 kg
- Average Daily DMI ([1]; Treatment 2, 4.71 g UHP daily): 1.516 kg
- Gain:Feed Ratio ([1]; Treatment 2, 4.71 g UHP daily): 0.1043
- Average Finishing Weight ([1]; Treatment 2, 4.71 g UHP daily): 81.275 kg
- Average Starting Weight ([1]; Treatment 2, 4.71 g UHP daily): 74.95 kg
- weight gain versus control group ([1]; treatment groups): gained more weight on average than the control group
